Holding throughout (experiment): growth of human tumour cells (NCI), 48 h
Experiment [1] deals with 786-0.
Experiment [2] concerns COLO 205.
The subject of experiment [3] is DU-145.
The test system of experiment [4] is HCT-116.
Experiment [5] relates to HOP-92.
Experiment [6] relates to HT-29.
In experiment [7] the test system is K562.
Experiment [8] relates to MDA-N.
In experiment [9] the test system is NCI-H23.
Experiment [10] concerns NCI-H460.
Experiment [11] deals with OVCAR-3.
The subject of experiment [12] is OVCAR-4.
The test system of experiment [13] is RPMI-8226.
Experiment [14] concerns SK-MEL-28.
For experiment [15], the system named is SK-MEL-2.
Experiment [16] deals with SK-MEL-5.
Experiment [17] has as its system UACC-257.
For experiment [18], the system named is SR.
Experiment [19] relates to A498.

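Protocol summary: plate cells (96-well), add compound at 5 concentrations, incubate 48 h, interpolate endpoints linearly. GI50 = concentration required for 50% inhibition of growth.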 The source made the active and inactive calls. Rule as the data show it: active = GI50 up to about 1.1 µM and inactive = higher.

Regarding `Cc1c(/N=N/c2ccc(Cl)cc2)c(C)n(C2OC(CO)C(O)C(O)C2O)c(=S)c1C#N` (stereo not given), the GI50 is 18.5 µM (inactive) in [1]; 19.3 µM (inactive) in [2]; 20.5 µM (inactive) in [3]; 15.1 µM (inactive) in experiment [4]; 31.5 µM (inactive) in [5]; 32.7 µM (inactive) in [6]. The GI50 is 16.7 µM (inactive) in [7]; 21.6 µM (inactive) in experiment [8]; 30 µM (inactive) in [9]; 25.8 µM (inactive) in experiment [10]; 12.8 µM (inactive) in [11]; 16.5 µM (inactive) in experiment [12]. Besides, the GI50 in [13] was 16.4 µM (inactive); in experiment [14], 23.4 µM (inactive); in [15], 14.7 µM (inactive); in experiment [16] it was 8.45 µM (inactive); in experiment [17], 24.2 µM (inactive).
In the case of `Cc1ccc(/C=N/Nc2nc3ccccc3s2)s1`, the GI50 in [1] was 66.5 µM (inactive); in [2], > 100 µM (inactive); in experiment [3] it was > 100 µM (inactive); in experiment [4] it was > 100 µM (inactive); in experiment [5], > 100 µM (inactive); in experiment [6], 40.8 µM (inactive). The GI50 in experiment [7] was 31.5 µM (inactive); in experiment [8], > 100 µM (inactive); in experiment [9], > 100 µM (inactive); in experiment [11], 34.9 µM (inactive); in experiment [12], 34.4 µM (inactive); in experiment [13], > 100 µM (inactive). The GI50 in experiment [14] is > 100 µM (inactive); in experiment [15] it was > 100 µM (inactive); in experiment [16], 38.9 µM (inactive); in experiment [17], > 100 µM (inactive).
Take `C=CNC(=O)NC(=O)CSc1nc(=O)c(-c2ccccc2NC(=O)C(F)(F)F)n[nH]1`: the GI50 is 51.2 µM (inactive) in [1]; 47.5 µM (inactive) in [2]; > 100 µM (inactive) in experiment [4]; 21.6 µM (inactive) in experiment [5]; > 100 µM (inactive) in [6]; > 100 µM (inactive) in [7]. Further, the GI50 in experiment [9] is 34.8 µM (inactive); in [10], 48.4 µM (inactive); in experiment [11], 38.3 µM (inactive); in experiment [14] it was 66.2 µM (inactive); in experiment [15], > 100 µM (inactive); in experiment [16] it was 0.569 µM (active). Also, the GI50 in experiment [18] was 84.3 µM (inactive).
In the case of `O=c1cc(NCc2ccncc2)[nH]c(=O)[nH]1`, the GI50 in [1], in [19], in experiment [2], in experiment [4], in experiment [5] and in experiment [6] was > 100 µM (inactive) throughout. For the same molecule, the GI50 in experiment [7], in [8], in [9], in [10], in experiment [11] and in [12] was > 100 µM (inactive) in each case. Moreover, the GI50 in experiment [13], in experiment [14], in [15], in experiment [16], in [18] and in experiment [17] was > 100 µM (inactive) each time.
On to `NCCSc1nc2ccccc2c(=O)n1-c1ccccc1`, for which the GI50 in experiment [1] was 51.1 µM (inactive); in [19], 26.5 µM (inactive); in experiment [2] it was > 100 µM (inactive); in experiment [4], 60.3 µM (inactive); in [5], 10.3 µM (inactive); in experiment [6] it was 49.7 µM (inactive). Further, the GI50 in [7] is 39.9 µM (inactive); in experiment [8] it was 42.9 µM (inactive); in experiment [9], 50.2 µM (inactive); in experiment [11], > 100 µM (inactive); in experiment [12], 52.8 µM (inactive); in [13] it was > 10 µM (inactive). The GI50 in experiment [14] was > 100 µM (inactive); in [15], 67 µM (inactive); in experiment [16], 74.3 µM (inactive); in [18], 11.9 µM (inactive); in [17], 77.1 µM (inactive).
Consider `N#Cc1c(N)c(-c2ccc(Cl)cc2)c(F)c2ccccc12`, for which the GI50 in [1] is > 100 µM (inactive); in experiment [19] it was > 100 µM (inactive); in experiment [2], > 100 µM (inactive); in experiment [4] it was > 100 µM (inactive); in experiment [5] it was 3.98 µM (inactive); in experiment [6], 75.5 µM (inactive). For the same molecule, the GI50 in experiment [7], in [8], in experiment [9], in experiment [10], in experiment [11] and in [12] was > 100 µM (inactive) each time. The GI50 in [13] is 6.65 µM (inactive); in experiment [14], > 100 µM (inactive); in experiment [15] it was > 100 µM (inactive); in experiment [16] it was > 100 µM (inactive); in experiment [17], > 100 µM (inactive).
As for `[N-]=[N+]=C1N=CN=C1c1nc[nH]n1`, the GI50 was 21.9 µM (inactive) in experiment [1]; 20.2 µM (inactive) in experiment [19]; 45.1 µM (inactive) in [2]; 48.5 µM (inactive) in experiment [3]; 25 µM (inactive) in experiment [4]; 12.4 µM (inactive) in [5]. For the same molecule, the GI50 in [6] is > 100 µM (inactive); in experiment [7], 14.9 µM (inactive); in experiment [8] it was 41.9 µM (inactive); in experiment [9], 34.1 µM (inactive); in [11] it was 32.2 µM (inactive); in [12], 31.8 µM (inactive). Moreover, the GI50 in experiment [13] is 10.8 µM (inactive); in experiment [14], 76.7 µM (inactive); in [15] it was 94.8 µM (inactive); in experiment [16] it was 57.8 µM (inactive); in experiment [17], 57 µM (inactive).
Take `CC(C)(C)OC(=O)NCC(c1c[nH]c2ccc(Br)cc12)c1c[nH]c2ccc(Br)cc12`: the GI50 was 3.85 µM (inactive) in experiment [1]; 14.5 µM (inactive) in experiment [19]; 5 µM (inactive) in experiment [2]; 11.7 µM (inactive) in experiment [3]; 4.14 µM (inactive) in experiment [4]; 3.76 µM (inactive) in [5]. In addition, the GI50 was 3.34 µM (inactive) in [6]; 15.9 µM (inactive) in [7]; 8.63 µM (inactive) in experiment [8]; 4.33 µM (inactive) in [9]; 4.54 µM (inactive) in experiment [11]; 7.36 µM (inactive) in experiment [12]. The GI50 in experiment [13] is > 100 µM (inactive); in experiment [14], 16.3 µM (inactive); in experiment [15], 8.04 µM (inactive); in experiment [16] it was 6.38 µM (inactive); in experiment [17], 13 µM (inactive).
As to `C=CCOn1c(C=C)nc2ccc(C)cc21`, the GI50 in experiment [1] is 14 µM (inactive); in experiment [19], 17.1 µM (inactive); in [2], 13.6 µM (inactive); in experiment [4], 12.1 µM (inactive); in [5], 34.9 µM (inactive); in experiment [6], 14.1 µM (inactive). In addition, the GI50 in [7] was 20.6 µM (inactive); in experiment [8], 17.1 µM (inactive); in experiment [9], 19.8 µM (inactive); in experiment [10], 13.7 µM (inactive); in experiment [11] it was 16 µM (inactive); in experiment [12], 29.3 µM (inactive). In addition, the GI50 in experiment [13] was 2.95 µM (inactive); in [14], 18.7 µM (inactive); in experiment [15] it was 15.5 µM (inactive); in experiment [16] it was 17.5 µM (inactive); in experiment [18] it was 7.59 µM (inactive); in [17], 13.7 µM (inactive).

(Values after ChEMBL document CHEMBL1201862, “PubChem BioAssay data set” (2004).)
